Data on four molecules can be found in publication PMC6520522, “In vitro and in vivo Metabolism of a Potent Inhibitor of Soluble Epoxide Hydrolase, 1-(1-Propionylpiperidin-4-yl)-3-(4-(trifluoromethoxy)phenyl)urea” (Frontiers in Pharmacology, 2019).

Values joined by “and” are separate entries in the source; they are usually repeats but may differ in a detail not shown here. Identical values can stand only once.

What is called IC50 is the point on the concentration scale where inhibition reaches its midpoint.

Series [1] in a line: Metabolite identification/screening by LC-MS/MS (precursor ion scans, LC-MRM-MS) in rats. The class given is in vivo, rat. As to conditions: for detection as TPPU metabolite: LC-MS/MS, in vivo in rats (blood, urine), Table 1 footnote: in vitro and in vivo; for share of TPPU metabolism, if formed: not detected by the LC-MRM-MS method; for concentration in rat urine, if formed (below method detection limit): rat urine after oral TPPU, LC-MRM-MS, no peak found, LOD. As for the experimental part: Healthy male rats (Sprague Dawley, n = 4) were housed in temperature-controlled housing with ad libitum standard chow and drinking water. […]. Both blood and urine samples were collected. Blood samples (10 μL) at time points of 0 (before dosing), 0.25, 0.5, 1, 2, 4, 8, 12, 24, 48, and 72 h post dose were collected from the tail vein. Collected blood samples were transferred to Eppendorf tubes containing 90 μL of EDTA solution (0.1% EDTA and 0.1% acetic acid) and were immediately shaken to avoid blood coagulation. The urine and feces samples were passively collected at the time points of 8, 12, 24, 48, and 72 h post dose. TAPU (10 μL) of 1 μM in methanol was added in each blood and urine sample as an internal standard solution. The blood sample extraction was performed with 200 μL ethyl acetate by liquid-liquid extraction. The representative urine samples were subjected to protein precipitation prior to analysis of TPPU and Phase I metabolites. Briefly, urine (10 μL) was treated with 50 μL acetonitrile. After vortex mixing and centrifugation, the supernatant was collected. The feces samples (50–100 mg) were extracted using 600 μL extraction solution (MeOH: EA = 1:1). The mixtures were kept at −20°C overnight to give efficient extraction of TPPU and its metabolites. On day 2, after vortex mixing and centrifugation, the supernatant was collected. The remaining residue was extracted an additional time with 300 μL extraction solution, and the supernatant was combined after centrifugation. The collected supernatants were dried using a speed vacuum concentrator and reconstituted in 50 μL of 100 nM CUDA solution in methanol. In addition, urine (10 μL) was diluted with water (50 μL) and then subjected to analysis of glucuronide or sulfate conjugates.
(§1) LC-MS/MS analysis was conducted on an Agilent SL 1200 series LC system (Agilent, Palo Alto, CA) connected to a 4,000 Qtrap mass spectrometer (Applied Biosystems Instrument Corporation, Foster City, CA) with Turbo V ion source. Liquid chromatography was performed on a Kinetex® C18 column (100 × 2.1 mm, 1.7 μm). Three μL solution was injected onto the column held at 45°C for analysis. Mobile phase A and B were water with 0.1% acetic acid and acetonitrile with 0.1% acetic acid, respectively. The LC flow rate was 300 μL/min.
(§2) The mass spectrometer was operated in both negative and positive modes. Three different scan types were employed to perform mass spectrometry analysis, including product ion scan, precursor ion scan (optimized parameters in Table S4) and MRM scan (optimized parameters in Table S5).
. The other minor fragment ion at m/z 85 appeared at higher-energy collision induced dissociation (CID, 38 eV) and is derived from the C-O bond cleavage on the trifluoromethoxyphenyl group (Figure 1B). To support the structural identification of TPPU metabolites, six putative metabolites, M1–M4, α-keto amide metabolite and 4-(trifluoromethoxy)aniline were synthesized and analyzed by LC-MS/MS (Figure 2 and Table 2). In the negative ion mode, the fragment ion at m/z 176 was generated by all five synthetic putative metabolites (M1–M4 and α-keto amide metabolite). Apparently, this fragment ion (m/z 176) is a characteristic fragment that is generated by metabolites containing the 4-(trifluoromethoxy)aniline moiety. Therefore, precursor ion scan for m/z 176 can be used to screen for this kind of TPPU metabolite. The method limit of detection (LOD) is 2 ng/mL. In addition, the fragment ion at m/z 85 (from the trifluoro-methoxy) was also generated by these synthetic standards. […]. Therefore, precursor ion scan for m/z 85 can unveil a large number of possible TPPU metabolites, such as the ones-formed from amide hydrolysis and oxidation at aliphatic groups, aromatic ring, and nitrogen center. […]. […]

A short description of series [2]: In vitro metabolism of TPPU in liver S9 fractions. The conditions noted are these: for formation of metabolite in liver S9 fractions: with NADPH regeneration system, rat, mouse, dog, monkey, human, 2 h; for formation of metabolite in liver S9 fractions in the absence of a NADPH generation system: without NADPH, liver S9 fractions (Figure S1: human). The class given is in vitro ADME, human, monkey, dog, rat, mouse. As for the experimental part: The in vitro study of TPPU metabolism was conducted following previous methods as described (Watanabe and Hammock, [2001]). Briefly, 1 μL of TPPU (1 mM in DMSO; [TPPU]final = 10 μM) was mixed with 94 μL of diluted liver S9 fractions (final, 0.05 mg protein/mL) from human, monkey, dog, rat, and mouse and incubations were conducted in a 10 mL glass vial. After 5 min preincubation at 37°C, the reaction was initiated by adding 5 μL of NADPH regeneration solution. The NADPH regeneration solution was prepared by mixing 50 μL of NADP^+ (100 mM), 50 μL of G6P (500 mM), 50 μL of G6PDH (100 Unit/mL), and 100 μL of sodium phosphate buffer. Incubation without NADPH regeneration solution was used as control. Reactions were kept for 2 h and terminated by addition of 100 μL of ice-cold methanol containing CUDA (200 nM) as an internal standard. The mixture was followed by vigorous mixing for 2 min and centrifuging at 10,000^*g for 10 min. Each supernatant was transferred to an HPLC vial and kept under 4°C until LC-MS analysis.
as §1

Series [3] in a line: Feces levels of TPPU and metabolites after single oral dose in rats. The conditions noted are these: male, Sprague Dawley, feces, rat, single oral dose 10 mg/kg TPPU, n = 3; for concentration at 8 h: 8h post dose; for concentration at 12 h: 12h post dose; for concentration at 24 h: 24h post dose; for concentration at 48 h: 48h post dose; for concentration at 72 h: 72h post dose. It is filed as in vivo.

Series [4] is described as follows: Blood pharmacokinetics of TPPU and its metabolites after single oral dose in rats. It is filed as in vivo. The conditions noted are these: for half-life: male, Sprague Dawley, rat, whole blood, po, 10 mg/kg, oral gavage 10 mg/kg, n = 4, read-out: T1/2 (half-life) (converted); for share of the total TPPU-related exposure in blood: rat blood, single oral dose of TPPU, over 72 h. As for the experimental part: Healthy male rats (Sprague Dawley, n = 4) were housed in temperature-controlled housing with ad libitum standard chow and drinking water. Each rat received TPPU (dissolved in 0.5 mL PEG400) at a dose of 10 mg/kg by oral gavage in order to generate significant amounts of metabolites while corresponding to previous efficacious concentration doses. Both blood and urine samples were collected. Blood samples (10 μL) at time points of 0 (before dosing), 0.25, 0.5, 1, 2, 4, 8, 12, 24, 48, and 72 h post dose were collected from the tail vein. Collected blood samples were transferred to Eppendorf tubes containing 90 μL of EDTA solution (0.1% EDTA and 0.1% acetic acid) and were immediately shaken to avoid blood coagulation. The urine and feces samples were passively collected at the time points of 8, 12, 24, 48, and 72 h post dose. TAPU (10 μL) of 1 μM in methanol was added in each blood and urine sample as an internal standard solution. The blood sample extraction was performed with 200 μL ethyl acetate by liquid-liquid extraction. The representative urine samples were subjected to protein precipitation prior to analysis of TPPU and Phase I metabolites. Briefly, urine (10 μL) was treated with 50 μL acetonitrile. After vortex mixing and centrifugation, the supernatant was collected. The feces samples (50–100 mg) were extracted using 600 μL extraction solution (MeOH: EA = 1:1). The mixtures were kept at −20°C overnight to give efficient extraction of TPPU and its metabolites. On day 2, after vortex mixing and centrifugation, the supernatant was collected. The remaining residue was extracted an additional time with 300 μL extraction solution, and the supernatant was combined after centrifugation. The collected supernatants were dried using a speed vacuum concentrator and reconstituted in 50 μL of 100 nM CUDA solution in methanol. In addition, urine (10 μL) was diluted with water (50 μL) and then subjected to analysis of glucuronide or sulfate conjugates.
as §1, §2

A further series deals with T1, recombinant human sEH (Homo sapiens, UniProt P34913).
T1 sequence (P34913 1-555): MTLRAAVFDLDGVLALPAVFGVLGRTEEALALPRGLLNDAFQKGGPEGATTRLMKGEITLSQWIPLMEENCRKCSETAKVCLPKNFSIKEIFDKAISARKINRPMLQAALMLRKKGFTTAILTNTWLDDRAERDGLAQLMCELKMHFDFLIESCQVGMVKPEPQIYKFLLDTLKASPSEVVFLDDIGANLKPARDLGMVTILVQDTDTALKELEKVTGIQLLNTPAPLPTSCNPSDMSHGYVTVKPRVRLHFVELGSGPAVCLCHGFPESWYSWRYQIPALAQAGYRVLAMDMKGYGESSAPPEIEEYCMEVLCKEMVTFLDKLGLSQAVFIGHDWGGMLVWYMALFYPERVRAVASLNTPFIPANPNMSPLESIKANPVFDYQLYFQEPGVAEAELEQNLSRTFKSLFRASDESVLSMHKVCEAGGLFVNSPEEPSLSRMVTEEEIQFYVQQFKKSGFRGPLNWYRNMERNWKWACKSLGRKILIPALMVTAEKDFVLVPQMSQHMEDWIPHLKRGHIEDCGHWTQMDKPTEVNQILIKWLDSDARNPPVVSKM
As to the kind of experiment: sEH inhibition potency, CMNPC fluorescent assay. It is filed as biochemical. The conditions noted are these: for IC50: CMNPC fluorescent assay, recombinant human sEH 1 nM, 30°C, average of three replicates, read-out: HsEH IC50. On the procedure:
Briefly, recombinant human sEH [1 nM in sodium phosphate buffer (0.1 M, pH = 7.4, 0.1 mg/mL BSA)] was incubated with each analyte (0.1 < [I]final < 10,000 nM) at 30°C for 5 min. Then, the reaction was started with the addition to CMNPC ([S]final = 5 μM). The reaction was monitored kinetically for 10 min at 30°C. The formation of the fluorescent product 6-methoxynaphthaldehyde (λexcitation = 330 nm, λemission = 465 nm, 30°C) was measured every 30 s. IC50 values were determined by regression of the remaining activity in function of the inhibitor concentrations. Assays were run in triplicate and IC50 values are the averages of three replicates.

Series [5] can be described thus: Urine levels of TPPU and metabolites after single oral dose in rats. The class given is in vivo. As to conditions: male, Sprague Dawley, rat, single oral dose 10 mg/kg TPPU, n = 3; for concentration at 8 h: 8h post dose; for concentration at 12 h: 12h post dose; for concentration at 24 h: 24h post dose; for concentration at 48 h: 48h post dose; for concentration at 72 h: 72h post dose.

On to 4-(trifluoromethoxy)aniline, for which, in series [1], the “detection as TPPU metabolite” value is recorded as “not detectable”; the “share of TPPU metabolism, if formed” value is below 0.01%; the “concentration in rat urine, if formed (below method detection limit)” value was below 0.1 ng/mL.

With `O=C(Nc1ccc(OC(F)(F)F)cc1)NC1CCN(C(=O)CCO)CC1` [Compound M2, 1-(1-(3-hydroxypropanoyl)piperidin-4-yl)-3-(4-(trifluoromethoxy)phenyl)urea], in series [2], the “formation of metabolite in liver S9 fractions” value is “found in all species tested” and the “formation of metabolite in liver S9 fractions in the absence of a NADPH generation system” value is “failed to be detected”. Moreover, in series [3], the concentration at 8 h came to 4.3 ng/mL, the concentration at 12 h was found to be 6.8 ng/mL, the concentration at 24 h was determined as 6.7 ng/mL and the concentration at 48 h was determined as 1.9 ng/mL. In addition, the concentration at 72 h in series [3] amounted to 43 ± 31 ng/mL. Moreover, in series [4], the half-life was 9.7 ± 0.8 h and the “share of the total TPPU-related exposure in blood” value is listed as below 0.4%. For the same molecule, at recombinant human sEH, the IC50 is 16 ± 2 nM. Besides, in series [5], the concentration at 8 h was found to be 2.7 ng/mL, the concentration at 12 h came to 3.2 ng/mL, the concentration at 24 h is 7.6 ng/mL and the concentration at 48 h came out at 3 ng/mL. In addition, the concentration at 72 h in series [5] turned out to be 61 ± 60 ng/mL.

With `O=C(Nc1ccc(OC(F)(F)F)cc1)NC1CCNCC1` [Compound M3, 1-(piperidin-4-yl)-3-(4-(trifluoromethoxy)phenyl)urea], in series [2], the “formation of metabolite in liver S9 fractions” value is on record as “found in all species tested” and the “formation of metabolite in liver S9 fractions in the absence of a NADPH generation system” value is recorded as “could still be produced”. Moreover, in series [3], the concentration at 8 h was determined as 3.6 ng/mL, the concentration at 12 h was 8.3 ng/mL, the concentration at 24 h is 1.1 ng/mL and the concentration at 48 h turned out to be 3.4 ng/mL. Also, in series [3], the concentration at 72 h was found to be 1.7 ng/mL. In addition, in series [4], the half-life is 14 ± 2.7 h and the “share of the total TPPU-related exposure in blood” value is given as below 0.4%. In addition, the IC50 on recombinant human sEH was 83.5 nM and 83 nM. In addition, the “fold lower potency than TPPU toward human sEH” value on recombinant human sEH (ratio of IC50 values, versus TPPU) worked out at 80 fold. In series [5], the concentration at 8 h was 2.5 ng/mL, the concentration at 12 h amounted to 2.9 ng/mL, the concentration at 24 h is 1 ng/mL and the concentration at 48 h came to 1.5 ng/mL. In addition, the concentration at 72 h in series [5] stood at 44 ± 21 ng/mL.

As for `CC(=O)C(=O)N1CCC(NC(=O)Nc2ccc(OC(F)(F)F)cc2)CC1` [α-Keto amide, 1-(1-(2-oxopropanoyl)piperidin-4-yl)-3-(4-(trifluoromethoxy)phenyl)urea], in series [1], the “detection as TPPU metabolite” value is given as “not detectable”; the “share of TPPU metabolism, if formed” value was below 0.01%; the “concentration in rat urine, if formed (below method detection limit)” value is below 0.5 ng/mL.
